Reference: US6552072B2, “Use of metal complexes to treat gastrointestinal infections” (Pfylori Limited, priority 1996, dated 2003)

System: H. pylori
Test: In vitro minimum inhibitor concentrations (MICs) of metal-ligand complexes against H. pylori
Format: cell-based
Settings: Example 1
Excerpt: In Vitro Minimum Inhibitor Concentrations (MICs) Using Metal-ligand Complexes
Study of MICs of Other Metal-ligands Against H. pylori

SMILES | MIC (Helicobacter pylori) | MIC against H. pylori
O=C(O)CC(O)(CC(=O)O)C(=O)O [Citrate] | > 0.064 µg/mL | 
[O-][n+]1ccccc1[S-].[O-][n+]1ccccc1[S-].[Zn+2] [Zinc Salt] |  | >>64 μg/l
O=C([O-])CC(O)(CC(=O)[O-])C(=O)[O-].O=C([O-])CC(O)(CC(=O)[O-])C(=O)[O-].[Zn+2].[Zn+2].[Zn+2] [Zinc Citrate, Zinc citrate] |  | 8 to 64 µg/L
